In one assay the target is PI3Kα (p110α/p85α) (Homo sapiens (Human), UniProt P42336). Description: PI3Kα enzymatic test by measuring the consumption of ATP. The class given is biochemical. As to the method: Model 2: PI3Kα Enzymatic Test by Measuring the Consumption of ATP.
The test uses a lucifeurerin/luciferase system to measure the concentration of ATP and its consumption during the enzymatic reaction. The test is performed in 96-well format (Corning/Costar 96 black flat-bottomed half-wells plate, ref. 3694) in a total volume of 30 μl.
To 1 μl of inhibitor in 100% DMSO are added (final concentrations) 50 μM of the substrate PIP2 ((L-α-phosphatidyl-D-myoinositol 4,5-bisphosphate, Echelon 117P-4516-0500), 2 μM of ATP and 1.7 μg/ml of PI3Kα, (p110α/p85α, Invitrogen PV4788) in a buffer of Tris/HCl 50 mM pH 7.5, EGTA 1 mM, MgCl2 10 mM, Chaps 0.03%, 1 mM DTT). After 90 minutes, the reaction is quenched by adding 20 μl/well of KinaseGlo reagent (Promega V6713). After 10 minutes in the dark, the luminescence is read on the PHERAStar microplate reader (reading at 0.8 sec/well).
The IC50 values are determined by the preparation of successive threefold dilutions on at least a scale of 10 000.

Assay [1] addresses mTOR (human recombinant aa mTOR 1360-2549) (Homo sapiens (Human), UniProt P42345). Description: mTOR enzymatic test by TR-FRET (phosphorylation of GFP-4EBP1). In kind it is biochemical. As to the method: Model 1: mTOR Enzymatic Test by TR-FRET (Time-resolved Fluorescence Resonance Energy Transfer).
The test detects the phosphorylation of the substrate GFP-4EBP1 using a terbium-labelled antibody that is specific for the phospho-Thr46 epitope. Binding of the Tb-antibody to the phosphorylated GFP peptide allows the transfer of energy from Tb, excited at 340 nm, to GFP with an increase in the fluorescence emission of the GFP at 520 nm. […] The mixture is incubated for 30 minutes at room temperature. 10 μl of solution are taken up and the reaction is quenched by adding 10 μl of Tb-antibody solution (Invitrogen PV4757)/EDTA (2 nM Tb-Ac and 10 mM EDTA final). After 60 minutes at room temperature, the fluorescence at 490 nm, from the Tb emission, and at 520 nm, from the GFP emission, is measured in a BMG PHERAstar reader equipped with a Lanthascreen™ filter (excitation at 340 nm, emission at 490 and 520 nm). The results are given in the form of the 520/490 ratio.
In general terms: In TR-FRET formats the signal depends on donor and acceptor labels being close together.

For the next assay, the system named is Akt-pS473 in U87MG cells. The conditions noted are these: Homo sapiens, U-87 MG; for IC50: read-out: U87 Akt-pS473 % Inhibition or IC50, nM (IC50), U87MG cells.
The next assay deals with U87MG tumour cells. Description: Test of in vitro proliferation of U87MG tumour cells. In kind it is cell-based. The settings on record: Homo sapiens, U-87 MG, 72 h, U87MG cells, 72 hours; read-out: U87 Cell Proliferation IC50. As to the method: Model 4: Test of in vitro Proliferation of U87MG Tumour Cells.
The cell growth is determined with the reagent CellTiter 96 AQueous One Solution Cell Proliferation Assay from Promega (Cat. No. G3581).

PI3Kα (p110α/p85α), sequence (P42336 whole entry): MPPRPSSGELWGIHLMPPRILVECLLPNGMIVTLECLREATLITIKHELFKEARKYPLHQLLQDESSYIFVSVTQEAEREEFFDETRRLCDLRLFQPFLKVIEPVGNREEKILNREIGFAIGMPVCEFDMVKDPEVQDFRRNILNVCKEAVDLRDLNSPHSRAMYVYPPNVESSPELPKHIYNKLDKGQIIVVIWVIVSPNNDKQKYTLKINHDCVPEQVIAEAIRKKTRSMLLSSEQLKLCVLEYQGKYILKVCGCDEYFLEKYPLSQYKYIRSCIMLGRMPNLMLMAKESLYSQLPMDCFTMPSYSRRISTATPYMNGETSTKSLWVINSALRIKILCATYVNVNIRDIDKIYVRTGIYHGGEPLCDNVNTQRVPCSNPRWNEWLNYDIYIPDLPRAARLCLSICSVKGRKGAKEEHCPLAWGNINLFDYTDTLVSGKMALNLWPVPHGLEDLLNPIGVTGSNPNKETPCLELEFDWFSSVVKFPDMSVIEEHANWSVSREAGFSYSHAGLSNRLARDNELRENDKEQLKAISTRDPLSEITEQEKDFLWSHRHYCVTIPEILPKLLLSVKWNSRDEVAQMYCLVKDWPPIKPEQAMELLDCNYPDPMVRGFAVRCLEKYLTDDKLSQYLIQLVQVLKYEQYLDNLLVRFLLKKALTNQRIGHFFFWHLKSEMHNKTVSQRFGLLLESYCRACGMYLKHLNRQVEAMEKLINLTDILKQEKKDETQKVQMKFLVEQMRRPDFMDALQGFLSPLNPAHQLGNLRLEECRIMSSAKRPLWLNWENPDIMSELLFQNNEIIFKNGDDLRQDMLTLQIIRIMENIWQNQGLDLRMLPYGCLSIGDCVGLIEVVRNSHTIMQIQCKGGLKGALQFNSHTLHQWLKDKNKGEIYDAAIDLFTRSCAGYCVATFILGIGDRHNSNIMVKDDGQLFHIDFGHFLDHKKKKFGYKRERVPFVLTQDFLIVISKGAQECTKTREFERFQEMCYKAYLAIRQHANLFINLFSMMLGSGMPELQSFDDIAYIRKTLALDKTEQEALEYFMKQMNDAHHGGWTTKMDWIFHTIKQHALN
PI3Kα (p110α/p85α), sequence (P27986 whole entry partner): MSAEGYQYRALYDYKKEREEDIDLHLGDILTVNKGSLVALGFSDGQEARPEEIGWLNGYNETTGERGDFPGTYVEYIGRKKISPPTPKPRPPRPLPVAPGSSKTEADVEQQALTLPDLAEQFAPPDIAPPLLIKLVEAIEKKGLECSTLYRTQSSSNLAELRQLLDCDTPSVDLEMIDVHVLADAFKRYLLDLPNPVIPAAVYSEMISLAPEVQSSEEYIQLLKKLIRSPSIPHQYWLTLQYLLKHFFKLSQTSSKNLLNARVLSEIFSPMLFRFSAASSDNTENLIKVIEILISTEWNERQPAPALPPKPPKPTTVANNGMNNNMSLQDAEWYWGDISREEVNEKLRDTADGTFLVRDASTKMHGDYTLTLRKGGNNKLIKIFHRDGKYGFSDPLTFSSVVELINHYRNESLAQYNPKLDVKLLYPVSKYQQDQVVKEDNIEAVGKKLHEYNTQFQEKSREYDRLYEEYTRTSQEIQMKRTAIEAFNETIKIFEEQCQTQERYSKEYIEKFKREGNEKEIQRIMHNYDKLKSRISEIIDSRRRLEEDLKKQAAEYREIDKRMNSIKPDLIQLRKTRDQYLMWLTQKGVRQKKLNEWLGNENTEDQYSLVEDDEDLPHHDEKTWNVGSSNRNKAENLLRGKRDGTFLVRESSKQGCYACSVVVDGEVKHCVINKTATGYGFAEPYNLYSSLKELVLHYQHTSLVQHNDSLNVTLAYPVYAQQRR
mTOR (human recombinant aa mTOR 1360-2549), sequence (P42345 1360-2549): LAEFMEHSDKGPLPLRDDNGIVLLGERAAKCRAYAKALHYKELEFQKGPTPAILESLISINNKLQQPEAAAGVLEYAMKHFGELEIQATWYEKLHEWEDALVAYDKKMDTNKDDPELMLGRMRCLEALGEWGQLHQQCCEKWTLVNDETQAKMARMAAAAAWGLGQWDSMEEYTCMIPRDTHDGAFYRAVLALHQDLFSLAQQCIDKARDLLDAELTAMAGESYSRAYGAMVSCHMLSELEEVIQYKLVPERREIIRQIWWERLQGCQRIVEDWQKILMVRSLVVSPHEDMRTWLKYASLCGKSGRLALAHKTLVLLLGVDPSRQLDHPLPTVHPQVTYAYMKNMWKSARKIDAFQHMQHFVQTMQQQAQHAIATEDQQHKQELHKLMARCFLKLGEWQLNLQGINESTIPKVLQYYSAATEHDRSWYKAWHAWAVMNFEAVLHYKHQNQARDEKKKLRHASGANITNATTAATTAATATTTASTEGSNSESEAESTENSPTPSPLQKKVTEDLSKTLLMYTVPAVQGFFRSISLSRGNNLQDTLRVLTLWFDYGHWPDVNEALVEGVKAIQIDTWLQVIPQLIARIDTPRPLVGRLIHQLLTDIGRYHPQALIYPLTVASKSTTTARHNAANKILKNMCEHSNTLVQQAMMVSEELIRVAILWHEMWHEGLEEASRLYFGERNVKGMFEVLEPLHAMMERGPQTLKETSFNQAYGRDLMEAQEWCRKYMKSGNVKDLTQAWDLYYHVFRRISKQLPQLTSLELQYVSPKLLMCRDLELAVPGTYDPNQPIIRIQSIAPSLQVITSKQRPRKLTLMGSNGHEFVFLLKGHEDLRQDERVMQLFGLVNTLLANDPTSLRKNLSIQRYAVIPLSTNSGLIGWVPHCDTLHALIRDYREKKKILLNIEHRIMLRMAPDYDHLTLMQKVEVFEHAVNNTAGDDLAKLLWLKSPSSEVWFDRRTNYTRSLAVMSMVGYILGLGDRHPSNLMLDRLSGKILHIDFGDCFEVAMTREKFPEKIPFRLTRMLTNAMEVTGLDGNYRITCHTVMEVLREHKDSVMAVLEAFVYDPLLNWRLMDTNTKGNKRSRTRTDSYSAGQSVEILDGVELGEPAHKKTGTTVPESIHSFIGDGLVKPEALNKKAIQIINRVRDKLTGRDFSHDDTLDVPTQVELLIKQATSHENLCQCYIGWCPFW

`CCN1CC(C)(C)Oc2nc(N3CC4CCC(C3)O4)nc(-c3ccc(NC(=O)NC)c(F)c3)c2C1=O` [Example 1, 1-{4-[6-Ethyl-8,8-dimethyl-2-(8-oxa-3-azabicyclo[3.2.1]oct-3-yl)-5-oxo-5,6,7,8-tetrahydro-9-oxa-1,3,6-triazabenzocyclohepten-4-yl]-2-fluorophenyl}-3-methylurea]: the “PI3Ka IC50” value at PI3Kα (p110α/p85α) amounted to 8841 nM. For the same molecule, the IC50 in assay [1] was 23 nM; in the assay with Akt-pS473 in U87MG cells it was 55 nM; with U87MG tumour cells it was 197 nM.
The matching figures for `CCN1CC(C)(C)Oc2nc(N3CCOC[C@@H]3C)nc(-c3ccc(NC(=O)NC)c(F)c3)c2C1=O` [Example 2, 1-{4-[6-Ethyl-8,8-dimethyl-2-((S)-3-methylmorpholin-4-yl)-5-oxo-5,6,7,8-tetrahydro-9-oxa-1,3,6-triazabenzocyclohepten-4-yl]-2-fluorophenyl}-3-methylurea]: 547 nM, 22 nM, 31 nM and 142 nM.
`CCNC(=O)Nc1ccc(-c2nc(N3CCOC[C@@H]3C)nc3c2C(=O)N(CC)CC(C)(C)O3)cc1F` [Example 3, 1-Ethyl-3-{4-[6-ethyl-8,8-dimethyl-2-((S)-3-methylmorpholin-4-yl)-5-oxo-5,6,7,8-tetrahydro-9-oxa-1,3,6-triazabenzocyclohepten-4-yl]-2-fluorophenyl}urea]: the “PI3Ka IC50” value at PI3Kα (p110α/p85α) was determined as 2110 nM. In addition, the results for the IC50 (in assay [1]; in the assay on Akt-pS473 in U87MG cells; in the assay on U87MG tumour cells) were 18 nM, 48 nM and 242 nM, respectively.
The matching figures for `CCNC(=O)Nc1ccc(-c2nc(N3CC4CCC(C3)O4)nc3c2C(=O)N(C[C@@H]2CCCN2)CC(C)(C)O3)cc1F` [Example 4, 1-{4-[8,8-Dimethyl-2-(8-oxa-3-azabicyclo[3.2.1]oct-3-yl)-5-oxo-6-(S)-1-pyrrolidin-2-ylmethyl-5,6,7,8-tetrahydro-9-oxa-1,3,6-triazabenzocyclohepten-4-yl]-2-fluorophenyl}-3-ethylurea]: greater than 10000 nM, 721 nM, greater than 3000 nM and greater than 10000 nM.
In the case of `CCNC(=O)Nc1ccc(-c2nc(N3CC4CCC(C3)O4)nc3c2C(=O)N(CCC(=O)O)CC(C)(C)O3)cc1` [Example 7, 3-[4-[4-(3-Ethylureido)phenyl]-8,8-dimethyl-2-(8-oxa-3-azabicyclo[3.2.1]oct-3-yl)-5-oxo-7,8-dihydro-5H-9-oxa-1,3,6-triazabenzocyclohepten-6-yl]propionic acid], the “PI3Ka IC50” value at PI3Kα (p110α/p85α) is greater than 10000 nM. For the same molecule, the results for the IC50 (in assay [1]; in the assay with Akt-pS473 in U87MG cells; in the assay with U87MG tumour cells) were 17 nM, greater than 3000 nM and greater than 10000 nM, respectively.
The like results for `CCNC(=O)Nc1ccc(-c2nc(N3CC4CCC(C3)O4)nc3c2C(=O)N(CCC(=O)N(C)C)CC(C)(C)O3)cc1` [Example 8, 3-[4-[4-(3-ethylureido)phenyl]-8,8-dimethyl-2-(8-oxa-3-azabicyclo[3.2.1]oct-3-yl)-5-oxo-7,8-dihydro-5H-9-oxa-1,3,6-triazabenzocyclohepten-6-yl]-N,N-dimethylpropionamide] were, in that order, greater than 10000 nM, 44 nM, 537 nM and 3810 nM.
`CCNC(=O)Nc1ccc(-c2nc(N3CC4CCC(C3)O4)nc3c2C(=O)N(CC)CC(C)(C)CO3)cc1` [Example 10, 1-Ethyl-3-{4-[6-ethyl-8,8-dimethyl-2-(8-oxa-3-azabicyclo[3.2.1]oct-3-yl)-5-oxo-6,7,8,9-tetrahydro-5H-10-oxa-1,3,6-triazabenzocycloocten-4-yl]phenyl}urea]: the “PI3Ka IC50” value on PI3Kα (p110α/p85α) was greater than 10000 nM. Further, the IC50 was 344 nM in assay [1], 611 nM in the assay with Akt-pS473 in U87MG cells and 8770 nM in the assay on U87MG tumour cells.
As to `CCN1CC(C)(C)Oc2nc(N3CCOC[C@@H]3C)nc(-c3ccc(NC(=O)NC)cc3F)c2C1=O` [Example 11, 1-{4-[6-ethyl-8,8-dimethyl-2-((S)-3-methylmorpholin-4-yl)-5-oxo-5,6,7,8-tetrahydro-9-oxa-1,3,6-triazabenzocyclohepten-4-yl]-3-fluorophenyl}-3-methylurea], the “PI3Ka IC50” value at PI3Kα (p110α/p85α) was 2300 nM. Also, the figures for the IC50 (in assay [1]; with Akt-pS473 in U87MG cells; in the assay on U87MG tumour cells) were 13 nM, 61 nM and 271 nM, respectively.
Consider `CCN1CC(C)(C)Oc2nc(N3CCOC[C@@H]3C)nc(-c3ccc(NC(=O)Nc4ccncc4)cc3F)c2C1=O` [Example 12, 1-{4-[6-ethyl-8,8-dimethyl-2-((S)-3-methylmorpholin-4-yl)-5-oxo-5,6,7,8-tetrahydro-9-oxa-1,3,6-triazabenzocyclohepten-4-yl]-3-fluorophenyl}-3-pyridin-4-ylurea], for which the “PI3Ka IC50” value at PI3Kα (p110α/p85α) was determined as 640 nM. For the same molecule, the IC50 turned out to be 17 nM in assay [1], 43 nM in the assay with Akt-pS473 in U87MG cells and 121 nM in the assay with U87MG tumour cells.
The like results for `CCN1CC(C)(C)Oc2nc(N3CC4CCC(C3)O4)nc(-c3ccc(NC(=O)Nc4ccc(N5CCN(C)CC5)cc4)c(F)c3)c2C1=O` [Example 13, 1-{4-[6-ethyl-8,8-dimethyl-2-(8-oxa-3-azabicyclo[3.2.1]oct-3-yl)-5-oxo-5,6,7,8-tetrahydro-9-oxa-1,3,6-triazabenzocyclohepten-4-yl]-2-fluorophenyl}-3-[4-(4-methylpiperazin-1-yl)phenyl]urea] were, in that order, 6470 nM, 132 nM, 13 nM and 32 nM.
The like results for `CCNC(=O)Nc1ccc(-c2nc(N3CC4CCC(C3)O4)nc3c2C(=O)N(C2CCOCC2)CC(C)(C)O3)cc1` [Example 14, 1-{4-[8,8-dimethyl-2-(8-oxa-3-azabicyclo[3.2.1]oct-3-yl)-5-oxo-6-(tetrahydropyran-4-yl)-5,6,7,8-tetrahydro-9-oxa-1,3,6-triazabenzocyclohepten-4-yl]phenyl}-3-ethylurea] were, in that order, greater than 10000 nM, 41 nM, 458 nM and 1420 nM.
As to `CCNC(=O)Nc1ccc(-c2nc(N3CCOCC3)nc3c2C(=O)NCC(C)(C)O3)cc1` [Example 94, 1-[4-(8,8-Dimethyl-2-morpholin-4-yl-5-oxo-5,6,7,8-tetrahydro-9-oxa-1,3,6-triazabenzocyclohepten-4-yl)phenyl]-3-ethylurea], the “PI3Ka IC50” value at PI3Kα (p110α/p85α) came to 7320 nM. Also, the IC50 was 112 nM in assay [1] and greater than 10000 nM in the assay on Akt-pS473 in U87MG cells.
`COCCN1CC(C)(C)Oc2nc(N3CC4CCC(C3)O4)nc(-c3ccc(NC(=O)Nc4cccc(OC(F)F)c4)c(F)c3)c2C1=O` [Example 220, 1-(3-Difluoromethoxyphenyl)-3-{2-fluoro-4-[6-(2-methoxyethyl)-8,8-dimethyl-2-(8-oxa-3-azabicyclo[3.2.1]oct-3-yl)-5-oxo-5,6,7,8-tetrahydro-9-oxa-1,3,6-triazabenzocyclohepten-4-yl]phenyl}urea]: the IC50 in assay [1] is 348 nM; in the assay with Akt-pS473 in U87MG cells, 30 nM; with U87MG tumour cells it was 285 nM.
With `CCN1CC(C)(C)Oc2nc(N3CC4CCC(C3)O4)nc(-c3ccc(NC(=O)OC[C@@H](C)O)c(F)c3)c2C1=O` [Example 239, {4-[6-Ethyl-8,8-dimethyl-2-(8-oxa-3-azabicyclo[3.2.1]oct-3-yl)-5-oxo-5,6,7,8-tetrahydro-9-oxa-1,3,6-triazabenzocyclohepten-4-yl]-2-fluorophenyl}carbamic acid (R)-2-hydroxypropyl ester], the IC50 in assay [1] was 1070 nM; in the assay on U87MG tumour cells, greater than 10000 nM. In addition, the inhibition at 1 µM with Akt-pS473 in U87MG cells (read-out: U87 Akt-pS473 % Inhibition) stood at 38%.
For `CN1CC(C)(C)Oc2nc(N3CC4CCC(C3)O4)nc(-c3ccc(NC(=O)Nc4ccc(N5C6CCC5COC6)nc4)c(F)c3)c2C1=O` [Example 245, 1-{2-Fluoro-4-[6,8,8-trimethyl-2-(8-oxa-3-azabicyclo[3.2.1]oct-3-yl)-5-oxo-5,6,7,8-tetrahydro-9-oxa-1,3,6-triazabenzocyclohepten-4-yl]phenyl}-3-[6-(3-oxa-8-azabicyclo[3.2.1]oct-8-yl)pyridin-3-yl]urea], the “PI3Ka IC50” value on PI3Kα (p110α/p85α) is greater than 10000 nM. Also, the IC50 in assay [1] was 63 nM; in the assay with Akt-pS473 in U87MG cells, 67 nM.

In general, inhibition refers to the percentage by which the read-out fell short of the control.

These data come from patent US9120812B2, “Pyrimidooxazocine derivatives as mTOR-inhibitors” (SANOFI, priority 2012, dated 2015).
